As usually defined, the IC50 is the concentration that gives 50% inhibition.

The text below walks through data of PubChem BioAssay AID1645864 (Buhrlage Lab, Dana-Farber Cancer Institute and Novartis …, 2021).

Calls of active or inactive are those of the source.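 Rule for the calls: active = maximal inhibition of USP17 at or above 30% in the confirmation dose-response, a value not among the printed readouts; inactive = the rest.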

The target in the assay is Ubiquitin carboxyl-terminal hydrolase 17-like protein 5 (Homo sapiens) (UniProt A8MUK1). Kind of assay: ubiquitin-specific protease 17 inhibitors, concentration series, biochemical, verification of primary actives (AID 1645864). The note with it: purified USP17, ubiquitin-rhodamine cleavage fluorescence, 3 h.
Sequence of Ubiquitin carboxyl-terminal hydrolase 17-like protein 5 (Homo sapiens) (A8MUK1 whole entry, looked up): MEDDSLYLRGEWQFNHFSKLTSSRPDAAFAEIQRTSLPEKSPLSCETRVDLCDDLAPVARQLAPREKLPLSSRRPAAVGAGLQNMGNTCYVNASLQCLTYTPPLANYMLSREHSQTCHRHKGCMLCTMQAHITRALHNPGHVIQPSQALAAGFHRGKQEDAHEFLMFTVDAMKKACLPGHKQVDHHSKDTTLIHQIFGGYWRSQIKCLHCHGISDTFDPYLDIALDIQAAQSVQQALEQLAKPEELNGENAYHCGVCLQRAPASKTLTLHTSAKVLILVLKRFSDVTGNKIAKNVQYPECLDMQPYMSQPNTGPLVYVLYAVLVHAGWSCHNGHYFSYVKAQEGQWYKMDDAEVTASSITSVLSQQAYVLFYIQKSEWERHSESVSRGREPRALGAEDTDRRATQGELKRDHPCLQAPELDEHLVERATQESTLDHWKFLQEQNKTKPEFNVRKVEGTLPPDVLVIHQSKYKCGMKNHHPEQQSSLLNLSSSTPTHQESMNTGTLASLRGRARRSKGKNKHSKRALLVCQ
For the molecule `Cc1cc(C)cc(N(CCC(=O)Nc2ccc(N3CCOCC3)cc2)S(=O)(=O)c2ccc(Cl)cc2)c1`, the 50% inhibitory concentration (IC50) was 18.2 µM.
As for `O=C(NCc1cccnc1)c1cnn2c(C(F)(F)F)cc(-c3ccccc3)nc12`, the IC50 was > 50 µM (inactive).
The figure for `O=C(COc1cccc(C(=O)NCc2ccccc2)c1)Nc1ccc(Oc2ccccc2)cc1` is 34.5 µM; for `Cc1ccccc1Cn1ccc(NC(=O)c2noc(C)c2[N+](=O)[O-])n1` it is > 50 µM (inactive).
For the molecule `CCOC(=O)c1cnc(C(F)(F)F)nc1Sc1n[nH]c(-c2cccs2)n1`, the IC50 is > 50 µM (inactive).
In the case of `CCOc1ccc(CCNC(=O)c2ccc3c(c2)N(CC)C(=O)c2ccccc2S3)cc1OCC`, the IC50 is > 50 µM (inactive).
As to `COc1ccc2nc3c(cc2c1)c(=O)n(C)c1c3c(=O)n(-c2ccccc2)c(=O)n1-c1ccccc1`, the IC50 was > 50 µM (inactive).
The figure for `O=C(O)COc1ccccc1/C=C1\CCc2c1nc1ccccc1c2C(=O)O` is > 50 µM (inactive); for `Cc1nc(-c2ccc(C(=O)NCc3ccc(F)cc3)cc2)cs1` it is 48.1 µM; for `CCOC(=O)c1ccc(NC(=O)Cn2c(=O)n(CC(=O)NCCc3ccc(OC)c(OC)c3)c(=O)c3sccc32)cc1` it is 2.51 µM.
Take `Cc1cnc2nc3c(cc2c1)CN(S(=O)(=O)c1cc(F)ccc1C)CC3`: the IC50 is > 50 µM (inactive).
Turning to `CCn1c(CN2CCCC(c3nc(-c4cccnc4)n[nH]3)C2)nc2ccccc21` (configuration not stated), the IC50 was > 50 µM (inactive).
As for `COc1cc2c(cc1OC)C(COc1ccccc1OC)N(C(=O)c1ccc3ccccc3c1)CC2` (configuration not stated), the IC50 was > 5 µM (inactive).
On to `COC(=O)c1cc2c(ccn2C)n1CC(=O)NC1CC1`, for which the IC50 was > 50 µM (inactive).
In the case of `N#C/C(=C\c1ccc(-c2cc(Cl)ccc2Cl)o1)c1nnc2n1CCCCC2` it was > 50 µM (inactive); in that of `Cc1ccc(-c2c(C(=O)Nc3ccc(S(N)(=O)=O)cc3)oc(=O)c3ccccc23)cc1`, 31.9 µM.
The figure for `c1coc(CNc2nc3ccccc3n3nnnc23)c1` is > 50 µM (inactive); for `Cc1c2c(nc3ccccc13)-c1ccccc1CC2` it is > 50 µM (inactive); for `O=C(Cn1c(-c2ccccc2)ncc(C(=O)NC2CC2)c1=O)Nc1ccccc1` it is 12.1 µM.
Consider `Cc1cc(N2CCC(NC(=O)NCc3ccc(F)cc3)C2=O)ccc1F` (configuration not stated), for which the IC50 was 9.01 µM.
Take `CC(c1ccccc1)n1c(-c2ccc(F)cc2)nc2c(c(=O)c3ccccc3n2C)c1=O` (configuration not stated): the IC50 is 2.85 µM.
As to `O=C(NCc1ccc(CN2CCCC2)cc1)c1cc2ccccc2[nH]c1=O`, the IC50 was 28.4 µM.
The figure for `COc1ccccc1-c1nc(Cn2nnc(C(=O)Nc3cc(C)cc(C)c3)c2N)c(C)o1` is 22.3 µM; for `O=C(c1ccc2occc2c1)N1CCC(S(=O)(=O)c2ccc(-c3ccco3)cc2)CC1` it is > 50 µM (inactive); for `COC(=O)[C@]1(O)O[C@@]2(C(=O)OC)c3c(oc4cc(C)cc(O)c4c3=O)[C@H]3c4c(oc5cc(C)cc(O)c5c4=O)C[C@H]1[C@H]32` it is > 50 µM (inactive).
Turning to `Cc1c(-c2nn3c(-c4ccco4)nnc3s2)cccc1[N+](=O)[O-]`, the IC50 was 3 µM.
Regarding `Cc1cc(N2CCOCC2)nc2ccc(NC(=O)CCC(=O)Nc3ccc(F)cc3)cc12`, the half-maximal inhibitory concentration (IC50) is 24.2 µM.
Turning to `COc1cc(Cl)ccc1Oc1ncnc2sc(C)c(C)c12`, the IC50 was > 50 µM (inactive).
In the case of `Cc1cc(=O)n(CC(=O)Nc2ccccc2C)c(Nc2ccc(F)cc2)n1` it was 26.8 µM.
With `CCc1ccc(C2c3c(oc4ccccc4c3=O)C(=O)N2c2nncs2)cc1` (configuration not stated), the IC50 is > 50 µM (inactive).
With `Cc1cc(=O)n(CC(=O)NCc2ccccc2F)c2c1c(C)nn2-c1ccccc1`, the IC50 is 24.2 µM.
Turning to `COc1ccc(NC(=O)c2cc(-c3cccnc3)n[nH]2)cc1Cl`, the half-inhibitory concentration (IC50) is 11.1 µM.
`O=C(CNC(=O)OCc1ccccc1)Nc1ccc(Br)cc1C(=O)c1ccccc1Cl`: the IC50 is 9.66 µM.
As for `CCn1c(SCC(=O)c2c(N)n(CC(C)C)c(=O)n(C)c2=O)nnc1-c1ccccc1`, the IC50 is 16 µM.
`O=C(CCn1c(=O)c2ccccc2n(Cc2cc(=O)n3ccccc3n2)c1=O)NCCc1ccc(Cl)cc1`: the IC50 was 31.5 µM.
With `Cc1ccc(-n2nc(C(=O)Nc3ccc(C)cn3)c3ncn(C)c(=O)c32)cc1`, the IC50 was 2.65 µM.
As to `CSc1ccccc1C(=O)Nc1sc2c(c1C(N)=O)CCC(C)C2` (configuration not stated), the IC50 is 2.35 µM.
In the case of `Cc1ccc(-c2nnc(-n3ncc(C#N)c3N)c3ccccc23)cc1C` it was > 50 µM (inactive); in that of `CC(C)c1nc2sc3c(NCc4ccco4)ncnc3c2c2c1CCC2`, > 50 µM (inactive).
On to `O=C(C1CCCN(S(=O)(=O)N2CCCCCC2)C1)N1CCN(c2ccccc2)CC1` (configuration not stated), for which the IC50 is > 50 µM (inactive).
`CC(C)Oc1ccc(C(=O)Nc2cccc(S(=O)(=O)N3CCCC3)c2)cc1`: the IC50 is > 50 µM (inactive).
The figure for `O=S(=O)(Cc1nnc(-c2ccccc2C(F)(F)F)o1)c1ccc(Cl)cc1` is > 50 µM (inactive); for `CCn1cc(NC(=O)CN2CCC3(CC=CCOC3)CC2)c(C)n1` it is > 50 µM (inactive); for `O=C(Cc1cccs1)Nc1cc(F)c2nc(N3CCOCC3)ccc2c1` it is 31.2 µM.
Turning to `CN1CCN(C(=O)c2cc(-c3ccn(-c4ccccc4)n3)n3ccccc23)CC1`, the IC50 is > 50 µM (inactive).
Regarding `CC(C)CC(=O)Nc1cc(F)c2nc(N3CCOCC3)ccc2c1`, the 50% inhibitory concentration (IC50) was 5.95 µM.
As for `Cc1ccc(Cn2cc(-c3noc(-c4ccncc4)n3)nn2)cc1`, the IC50 was 28.6 µM.
On to `CC1CCN(c2cc(-n3cnc(C(=O)N4CCCC(C)C4)c3)ncn2)CC1` (configuration not stated), for which the IC50 was > 50 µM (inactive).
`Cc1cc(O)c2c3c(c(O)c4c(c13)O[C@@H](C)C4(C)C)C(=O)C2=O`: the IC50 is 24.5 µM.
On to `COc1ccc(-c2cc(C(=O)NC3CCCCCC3)[nH]n2)cc1S(=O)(=O)N(C)C`, for which the IC50 is 44.5 µM.
As to `COc1cccc(NC(=O)C2Cn3ccnc3C3(CCN(C(C)=O)CC3)O2)c1` (configuration not stated), the IC50 is > 50 µM (inactive).
As to `Cc1nc(N2CCCC2)ncc1-c1cc(=O)[nH]c(N2CCc3ccccc3C2)n1`, the IC50 is 21.6 µM.
Take `Fc1cccc(-n2cc(-c3noc(-c4ccccn4)n3)nn2)c1`: the concentration for half-maximal inhibition (IC50) was 30.1 µM.
In the case of `Cc1cc(=O)n(CC(=O)Nc2ccccc2F)c(Nc2ccc(F)cc2)n1` it was 12.9 µM; in that of `Cc1ccccc1NC(=O)c1cc(S(=O)(=O)N2CCCCCC2)ccc1Cl`, 35.2 µM; in that of `Cc1ccc(NC(=O)CNC(=O)c2cc3ccccc3o2)cc1`, 14.6 µM.
The figure for `Cc1cc(C)c2cc(CN(CCc3ccccc3)C(=O)Nc3ccccc3)c(=O)[nH]c2c1` is 43.5 µM.
Turning to `COc1cc(OC)cc(-n2c(=O)c3sccc3n(CC(=O)Nc3ccc(C)cc3)c2=O)c1`, the IC50 is 10.1 µM.
As to `O=C1CC(NS(=O)(=O)c2ccc3ccccc3c2)CN1c1cccc(F)c1` (configuration not stated), the 50% inhibitory concentration (IC50) was 47.6 µM.
Take `Cc1c(-c2ccccc2)oc2c(C(=O)OCC(=O)Nc3ccccc3F)cccc2c1=O`: the IC50 is > 50 µM (inactive).
With `COCCNC(=O)c1cc(-c2cn(-c3ccccn3)c(C)n2)n2ccccc12`, the IC50 was > 50 µM (inactive).
For the molecule `CC(C)(C)c1ccc(Cn2nnc3c(=O)[nH]c(C4CCN(S(=O)(=O)c5ccc(S(=O)(=O)NC6CC6)cc5)CC4)nc32)cc1`, the half-maximal inhibitory concentration (IC50) was 39.3 µM.
In the case of `O=c1[nH]c(C2CCN(S(=O)(=O)c3ccc(S(=O)(=O)NC4CCCCC4)cc3)CC2)nc2c1nnn2Cc1c(Cl)cccc1Cl`, the concentration for half-maximal inhibition (IC50) is 9.15 µM.
On to `Cc1ccccc1NC(=O)Nc1ccccc1OCc1cc(=O)n2cccc(C)c2n1`, for which the concentration for half-maximal inhibition (IC50) was 0.663 µM.
The figure for `O=C(Cc1ccccc1F)Nc1nc(-c2ccco2)c(-c2ccco2)s1` is > 50 µM (inactive); for `Cc1nc(-c2noc3ccc(C(=O)Nc4cccnc4)cc23)cs1` it is 42.5 µM.
With `CCOC(=O)c1nc(Nc2ccc(OC)c(Cl)c2)c2ccccc2n1`, the 50% inhibitory concentration (IC50) was 25.3 µM.
In the case of `Cc1ccc(Nc2nc(Nc3cccc(F)c3)nc3nccnc23)c(C)c1` it was > 50 µM (inactive).
Consider `Cc1ccc(C(=O)c2cn(CC(=O)Nc3ccccc3)c3ccc(C)cc3c2=O)cc1`, for which the IC50 is 10.9 µM.
For the molecule `Cc1nn(-c2ccccc2)c(C)c1C(=O)OCC(=O)Nc1cccc(Br)c1`, the half-inhibitory concentration (IC50) was 40.6 µM.
The figure for `CCCCc1nc2sc3c(NCCN4CCOCC4)ncnc3c2c2c1CCC2` is > 50 µM (inactive).
Turning to `O=C(CNC(=O)c1cc2ccccc2o1)Nc1ccc2c(c1)OCCO2`, the IC50 was 46 µM.
On to `CCn1c(=O)c2ccccc2n(Cc2nc(-c3ccccc3OC)no2)c1=O`, for which the IC50 was > 50 µM (inactive).
Consider `Cc1ccc(CNC(=O)c2cnc3ccccc3n2)cc1`, for which the IC50 is > 50 µM (inactive).
With `O=C(Cn1ncc2c(N3CCCCCC3)ncnc21)NCc1ccccc1`, the IC50 was > 50 µM (inactive).
Turning to `CCCNc1cc(-c2ccccc2)nc2nc(-c3cccnc3)nn12`, the IC50 is > 50 µM (inactive).
With `Cc1ccc(C(C)C)cc1OCCOCCN1CCNCC1`, the IC50 is > 50 µM (inactive).
On to `Cc1ccc(C)c(-n2c(N)c(C(=O)NCCc3ccccc3)c3nc4ccccc4nc32)c1`, for which the IC50 was > 50 µM (inactive).
Regarding `COc1ccccc1-c1nc2c3c(C)c(C)n(-c4ccc(Br)cn4)c3ncn2n1`, the IC50 is 0.567 µM.
Consider `COc1ccc(NS(=O)(=O)c2cc(NC(=O)CCc3nc4ccccc4s3)ccc2C)cc1`, for which the IC50 is 28.1 µM.
As to `O=C(Nc1nc2ccccc2s1)c1ccc2c(c1)C(=O)N(Cc1cccnc1)C2=O`, the concentration for half-maximal inhibition (IC50) was 4.06 µM.
For the molecule `Cc1ccc(NC(=O)Cn2cc(S(=O)(=O)N3CCCC3)ccc2=O)cc1`, the half-maximal inhibitory concentration (IC50) was 19.5 µM.
The figure for `Cc1sc(NC(=O)CN2CCc3ccccc3C2)nc1-c1ccc2c(c1)CCN2C(=O)C1CCCCC1` is > 50 µM (inactive); for `Cn1c(CCNC(=O)c2[nH]nc3c2CCc2ccccc2-3)nc2ccccc21` it is 32.8 µM; for `Cc1cc(C)n(-c2cccc(C(=O)Nc3ccc4c(c3)CCN4S(C)(=O)=O)c2)n1` it is > 50 µM (inactive).
`CCCn1c(=O)n(CC(=O)c2ccccc2F)c2c(C(N)=O)nc(-c3ccco3)nc21`: the IC50 was > 50 µM (inactive).
On to `COCCNC(=O)Cn1c(=O)n(Cc2ccccc2)c(=O)c2c3c(sc21)CCC3`, for which the concentration for half-maximal inhibition (IC50) is 33.5 µM.
